Data reported in patent US11072618B2, “Compounds, compositions and methods” (Denali Therapeutics Inc., priority 2016, dated 2021).

Biological target: T1, GST-human receptor interacting protein kinase 1 fusion (8-327) enzyme (Homo sapiens, UniProt Q13546)
T1 sequence (Q13546 8-327): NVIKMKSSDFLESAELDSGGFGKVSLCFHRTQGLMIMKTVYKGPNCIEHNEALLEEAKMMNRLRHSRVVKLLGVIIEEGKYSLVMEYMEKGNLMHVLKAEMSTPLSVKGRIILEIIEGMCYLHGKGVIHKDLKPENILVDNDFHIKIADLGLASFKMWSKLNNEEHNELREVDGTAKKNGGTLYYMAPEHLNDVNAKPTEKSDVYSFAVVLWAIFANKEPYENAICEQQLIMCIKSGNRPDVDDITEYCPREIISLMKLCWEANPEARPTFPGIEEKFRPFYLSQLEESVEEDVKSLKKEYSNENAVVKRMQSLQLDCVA
Assay: Fluorescent Polarization Binding (FP Binding) assay, receptor interacting protein kinase 1
Conditions: 10 nM enzyme, 5 nM fluorescent-labeled ligand, RT 30 min, mean of a minimum of two independent experiments
Procedure: Fluorescent Polarization Binding (FP Binding) assay (Berger S. B. et al. (2015) Cell Death Discovery, 1: 15009; Maki J. L. et al. (2012) Anal Biochem., 427(2): 164-174) was performed in polystyrene low volume 384-well black plate, at Room Temperature (RT) in a final volume of 10.1 μL/well using 10 nM of GST-human receptor interacting protein kinase 1 fusion (8-327) enzyme and 5 nM of fluorescent-labeled ligand (14-(2-{[3-({2-{[4-(cyanomethyl)phenyl]amino}-6-[(5-cyclopropyl-1H-pyrazol-3-yl)amino]-4-pyrimidinyl}amino) propyl]amino}-2-oxoethyl)-16,16,18,18-tetramethyl-6,7,7a,8a,9,10,16,18-octahydrobenzo[2″,3″]indolizino[8″,7″:5′,6′]pyrano[3′,2′:3,4]pyrido[1,2-a]indol-5-ium-2-sulfonate.
Test compounds were serially diluted in DMSO at 100 fold final concentrations in the assay (1% DMSO final). In each well of a 384-well Plate were dispensed 0.1 μL of compound solution (or DMSO for controls) followed by 5 μL of GST-human receptor interacting protein kinase 1 fusion (8-327) enzyme at twice the final concentrations in assay buffer (50 mM HEPES pH 7.5, 10 mM NaCl, 50 mM MgCl2, 0.02% CHAPS, 0.5 mM DTT and 0.01% Pluronic F127). For negative control the enzyme addition was replaced by assay buffer only.
After addition of 5 μL of fluorescent-labeled ligand at twice the final concentrations in assay buffer, the plate was incubated at RT for 30 min. At the end, the binding was measured as FP value with the Envision (PerkinElmer) plate reader using filter for an excitation λ=531 nm FP and an emission λ=595 nm FP (S & P-pol).
Test compound inhibition was expressed as percent inhibition of internal assay controls. For concentration response curves, normalized data is fit and IC50 determined using XL-fit (IDBS) for Excel. IC50 were averaged to determine a mean value, for a minimum of two independent experiments.
Receptor interacting protein kinase 1 activity of exemplary compounds was determined according to the above general procedures.

Row | Structure (SMILES) | IC50 [nM]
1 | CC(F)(F)C1(C)CN2CCC(c3cncc(F)c3)N2C1=O (centres unmarked) [Compound 46] | 1000 to 30000
2 | CC1(CC(F)(F)F)CN2CCC(c3cncc(F)c3)N2C1=O (centres unmarked) [Compound 51] | 1000 to 30000
3 | CC(F)(F)C1(C)CN2CCC(c3cncc(C#N)c3)N2C1=O (centres unmarked) [Compound 37] | < 1000
4 | CC1(C)CC2(CN3CCC(c4cccc(F)c4)N3C2=O)C1 (centres unmarked) [Compound 12] | < 1000
5 | CCC1(C)CN2CCC(c3ccc(F)c(F)c3)N2C1=O (centres unmarked) [Compound 10] | < 1000
6 | CC(F)(F)C1(C)CN2CCC(c3cc(F)cc(C#N)c3)N2C1=O (centres unmarked) [Compound 43] | 1000 to 30000
7 | CCCC1(C)CN2CCC(c3cccc(F)c3)N2C1=O (centres unmarked) [Compound 15] | 1000 to 30000
8 | CC1(C)CN2CCC(c3cccc(F)c3)N2C1=O (single isomer, unassigned) [Compound 3] | < 1000
9 | O=C1N2C(c3cncc(F)c3)CCN2CC1(CC(F)(F)F)C(F)F (centres unmarked) [Compound 48] | 1000 to 30000
10 | CC1(CC2CC2)CN2CCC(c3cccc(F)c3)N2C1=O (centres unmarked) [Compound 17] | < 1000
11 | O=C1N2C(c3cncc(F)c3)CCN2CC1(CC1CC1)C(F)F (centres unmarked) [Compound 53] | 1000 to 30000
12 | CC1(CC#N)CN2CCC(c3cccc(F)c3)N2C1=O (centres unmarked) [Compound 28] | < 1000
13 | O=C1N2C(c3cncc(F)c3)CCN2CC1(CC1CC1)C(F)F (centres unmarked) [Compound 52] | < 1000
14 | CC1(C(F)F)CN2CCC(c3cc(F)cc(C#N)c3)N2C1=O (centres unmarked) [Compound 40] | < 1000
15 | CC1(CC(F)F)CN2CCC(c3cccc(F)c3)N2C1=O (centres unmarked) [Compound 27] | < 1000
16 | C=CCC1(C)CN2CCC(c3cccc(F)c3)N2C1=O (centres unmarked) [Compound 14] | < 1000
17 | CCC1(C)CN2CCC(c3cccc(F)c3)N2C1=O (centres unmarked) [Compound 7] | < 1000
18 | CC1(C)CCN2CCC(c3ccccc3)N2C1=O (centres unmarked) [Compound 8] | 1000 to 30000
19 | CC1(C)CN2CCC(c3ccc(F)c(F)c3)N2C1=O (centres unmarked) [Compound 9] | 1000 to 30000
20 | CC(F)(F)C1(C)CN2CCC(c3cncc(F)c3)N2C1=O (centres unmarked) [Compound 47] | < 1000
21 | CCC1(C)CN2CCC(c3cc(F)cc(C#N)c3)N2C1=O (centres unmarked) [Compound 23] | < 1000
22 | CC1(C)CN2CC[C@@H](c3ccccc3)N2C1=O [Compound 1] | < 1000
23 | CCCC1(C)CN2CCC(c3cccc(F)c3)N2C1=O (centres unmarked) [Compound 16] | < 1000
24 | CCC1(CF)CN2CCC(c3cccc(F)c3)N2C1=O (centres unmarked) [Compound 30] | < 1000
25 | CC1(CC2CC2)CN2CCC(c3cc(F)cc(C#N)c3)N2C1=O (centres unmarked) [Compound 35] | < 1000

Row | Structure (SMILES) | IC50 [nM]
26 | CCCC1(C(F)F)CN2CCC(c3cncc(C#N)c3)N2C1=O (centres unmarked) [Compound 54] | < 1000
27 | CC1(C(F)F)CN2CCC(c3cc(F)cc(C#N)c3)N2C1=O (centres unmarked) [Compound 41] | 1000 to 30000
28 | CC1(C(F)F)CN2CCC(c3cncc(F)c3)N2C1=O (single isomer, unassigned) [Compound 45] | < 1000
29 | CC(F)(F)C1(C)CN2CCC(c3cncc(C#N)c3)N2C1=O (single isomer, unassigned) [Compound 36] | 1000 to 30000
30 | CCC1(C)CN2CCC(c3cncc(F)c3)N2C1=O (centres unmarked) [Compound 26] | 1000 to 30000
31 | CCC1(C(F)F)CN2CCC(c3cc(F)cc(C#N)c3)N2C1=O (centres unmarked) [Compound 31] | < 1000
32 | CC1(C)CN2CCC(c3cccc(C#N)c3)N2C1=O (centres unmarked) [Compound 4] | 1000 to 30000
33 | CC1(C(F)F)CN2CCC(c3cncc(C#N)c3)N2C1=O (single isomer, unassigned) [Compound 39] | < 1000
34 | CCC1(C(F)F)C[C@H]2CCC(c3cccc(F)c3)N2C1=O (single isomer, unassigned) [Compound 55] | < 1000
35 | CC1(C(F)F)CN2CCC(c3cncc(C#N)c3)N2C1=O (single isomer, unassigned) [Compound 38] | 1000 to 30000
36 | CCC1(C(F)F)C[C@@H]2CCC(c3cccc(F)c3)N2C1=O (single isomer, unassigned) [Compound 57] | < 1000
37 | CCC1(C(F)F)CN2CCC(c3cccc(F)c3)N2C1=O (centres unmarked) [Compound 20] | < 1000
38 | CCC1(C)CN2CCC(c3cncc(F)c3)N2C1=O (centres unmarked) [Compound 25] | < 1000
39 | CCC1(C(F)F)CN2CCC(c3cncc(C#N)c3)N2C1=O (centres unmarked) [Compound 19] | < 1000
40 | CCC1(C(F)F)CN2CCC(c3cncc(Br)c3)N2C1=O (centres unmarked) [Compound 18] | < 1000
41 | CC1(CC(F)(F)F)CN2CCC(c3cncc(F)c3)N2C1=O (centres unmarked) [Compound 50] | < 1000
42 | CCC1(C)CN2CCC(c3cc(F)cc(F)c3)N2C1=O (single isomer, unassigned) [Compound 22] | < 1000
43 | CC1(C)CN2CCC(c3cc(F)cc(C#N)c3)N2C1=O (centres unmarked) [Compound 5] | < 1000
44 | CCC1(C)CN2CCC(c3cc(F)cc(F)c3)N2C1=O (centres unmarked) [Compound 21] | < 1000
45 | CC(F)(F)C1(C)CN2CCC(c3cc(F)cc(C#N)c3)N2C1=O (centres unmarked) [Compound 42] | < 1000
46 | CCC1(CC)CN2CCC(c3ccc(F)cc3)N2C1=O (centres unmarked) [Compound 2] | 1000 to 30000
47 | CC(F)(F)C1(C)CN2CCC(c3cccc(F)c3)N2C1=O (centres unmarked) [Compound 13] | < 1000
48 | CCC1(CCl)CN2CCC(c3cccc(F)c3)N2C1=O (centres unmarked) [Compound 29] | < 1000
49 | CCC1(C(F)F)CN2CCC(c3cncc(F)c3)N2C1=O (centres unmarked) [Compound 34] | 1000 to 30000
50 | CCC1(C(F)F)CN2CCC(c3cncc(F)c3)N2C1=O (centres unmarked) [Compound 33] | < 1000
